Here are results for 26 compounds from patent US9273041B2, “Compounds for the treatment of dyslipidemia and related diseases” (Cadila Healthcare Limited, priority 2012, dated 2016).

The assay addresses PCSK9 (Homo sapiens, UniProt Q8NBP7). Description: PCSK9-LDLR in vitro binding assay (solid phase, ELISA readout). As to conditions: read-out: % Inhibition PCSK 9; for inhibition at 10 µM: test compound concentration 10 μM; for inhibition at 100 µM: test compound concentration 100 μM; for inhibition at 1 µM: test compound concentration 1 μM. How it is done:
The PCSK9-LDLR in vitro binding Assay is a quantitative solid phase binding assay between PCSK9 and recombinant LDLR. Plates were pre-coated with a recombinant LDLR-AB domain, which binds PCSK9. Test compound at different concentration was added to the PCSK9 and added to LDLR immobilized on the wells. The amount of bound PCSK9 is measured by binding it with biotinylated anti-His-tag monoclonal antibody, followed by binding with horseradish peroxidase conjugated streptavidin substrate. The color was quantified by ELISA reader at […] which reflects the relative amount of PCSK9 that binds to LDLR in presence and absence of the inhibitor. EC50 values were calculated by nonlinear regression analysis using graph pad prism software. Each concentration point represents values in duplicates.

Sequence of PCSK9 (Q8NBP7 153-692): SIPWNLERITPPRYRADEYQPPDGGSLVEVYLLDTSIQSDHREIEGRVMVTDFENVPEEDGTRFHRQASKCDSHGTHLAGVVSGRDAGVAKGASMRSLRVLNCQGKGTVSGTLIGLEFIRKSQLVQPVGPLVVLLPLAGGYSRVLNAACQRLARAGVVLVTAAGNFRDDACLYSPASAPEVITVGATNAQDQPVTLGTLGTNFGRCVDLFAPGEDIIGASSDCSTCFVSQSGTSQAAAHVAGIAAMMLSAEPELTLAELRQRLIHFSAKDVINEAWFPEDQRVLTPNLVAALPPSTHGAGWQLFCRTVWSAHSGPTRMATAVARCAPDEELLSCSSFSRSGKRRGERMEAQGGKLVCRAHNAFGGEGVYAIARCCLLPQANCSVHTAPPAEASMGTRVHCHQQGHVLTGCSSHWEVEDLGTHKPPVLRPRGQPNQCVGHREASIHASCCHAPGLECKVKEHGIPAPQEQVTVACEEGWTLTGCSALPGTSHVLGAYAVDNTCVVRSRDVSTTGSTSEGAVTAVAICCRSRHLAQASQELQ
Sequence of PCSK9 (Q8NBP7 31-152 partner limits assumed): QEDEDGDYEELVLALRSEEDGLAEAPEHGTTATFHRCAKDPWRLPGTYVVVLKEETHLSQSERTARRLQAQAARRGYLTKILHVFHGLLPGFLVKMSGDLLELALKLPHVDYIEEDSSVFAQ

Turning to `Cc1c(-c2ccc(OCC(=O)NCC3CCOCC3)cc2)noc1-c1ccccc1` [Example 1, 2-(4-(4-Methyl-5-phenylisoxazol-3-yl)phenoxy)-N-((tetrahydro-2H-pyran-4-yl)methyl)acetamide], the inhibition at 10 µM is 42% and the inhibition at 100 µM is 68%.
On to `Cc1onc(-c2ccc(OCC(=O)NCC3CCOCC3)cc2)c1-c1ccccc1` [Example 2, 2-(4-(5-methyl-4-phenylisoxazol-3-yl)phenoxy)-N-((tetrahydro-2H-pyran-4-yl)methyl)acetamide], for which the inhibition at 10 µM is 9% and the inhibition at 100 µM came out at 33%.
On to `Cc1c(-c2ccc(OCC(=O)NCC3CCOCC3)cc2)noc1-c1ccc(F)cc1` [Example 3, 2-(4-(5-(4-fluorophenyl)-4-methylisoxazol-3-yl)phenoxy)-N-((tetrahydro-2H-pyran-4-yl)methyl)acetamide], for which the inhibition at 1 µM amounted to 33%, the inhibition at 10 µM was determined as 35% and the inhibition at 100 µM is 65%.
As for `Cc1c(-c2ccc(OCC(=O)NCC3CCOCC3)cc2)noc1-c1ccc(Cl)cc1` [Example 4, 2-(4-(5-(4-chlorophenyl)-4-methylisoxazol-3-yl)phenoxy)-N-((tetrahydro-2H-pyran-4-yl)methyl)acetamide], the inhibition at 10 µM worked out at 36% and the inhibition at 100 µM is 29%.
In the case of `Cc1c(-c2ccc(OCC(=O)NCC3CCOCC3)cc2)noc1-c1ccc(C(F)(F)F)cc1` [Example 5, 2-(4-(4-methyl-5-(4-(trifluoromethyl)phenyl)isoxazol-3-yl)phenoxy)-N-((tetrahydro-2H-pyran-4-yl)methyl)acetamide], the inhibition at 1 µM came to 49%, the inhibition at 10 µM was found to be 67% and the inhibition at 100 µM turned out to be 71%.
`Cc1ccc(-c2onc(-c3ccc(OCC(=O)NCC4CCOCC4)cc3)c2C)cc1` [Example 6, 2-(4-(4-methyl-5-(p-tolyl)isoxazol-3-yl)phenoxy)-N-((tetrahydro-2H-pyran-4-yl)methyl)acetamide]: the inhibition at 1 µM amounted to 12%, the inhibition at 10 µM was found to be 17% and the inhibition at 100 µM was determined as 34%.
As for `Cc1c(-c2ccc(OCC(=O)NCC3CCOCC3)cc2)nsc1-c1ccccc1` [Example 7, 2-(4-(4-methyl-5-phenylisothiazol-3-yl)phenoxy)-N-((tetrahydro-2H-pyran-4-yl)methyl)acetamide], the inhibition at 1 µM amounted to 22%, the inhibition at 10 µM is 22% and the inhibition at 100 µM was 55%.
Consider `COc1cc(-c2ccc(OCC(=O)NCC3CCOCC3)cc2)nn1-c1ccc(C(F)(F)F)cc1` [Example 8, 2-(4-(5-methoxy-1-(4-(trifluoromethyl)phenyl)-1H-pyrazol-3-yl)phenoxy)-N-((tetrahydro-2H-pyran-4-yl)methyl)acetamide], for which the inhibition at 10 µM worked out at 73% and the inhibition at 100 µM stood at 58%.
With `COc1cc(-c2ccc(OCC(=O)NCC3CCOCC3)cc2)nn1-c1ccc(F)cc1` [Example 9, 2-(4-(1-(4-fluorophenyl)-5-methoxy-1H-pyrazol-3-yl)phenoxy)-N-((tetrahydro-2H-pyran-4-yl)methyl)acetamide], the inhibition at 1 µM came out at 37%, the inhibition at 10 µM amounted to 41% and the inhibition at 100 µM worked out at 64%.
Consider `COc1cc(-c2ccc(OCC(=O)NCC3CCOCC3)cc2)nn1-c1ccccc1` [Example 10, 2-(4-(5-methoxy-1-phenyl-1H-pyrazol-3-yl)phenoxy)-N-((tetrahydro-2H-pyran-4-yl)methyl)acetamide], for which the inhibition at 1 µM was 33%, the inhibition at 10 µM turned out to be 40% and the inhibition at 100 µM came out at 56%.
On the same counts, the results for `Cc1nc(-c2ccccc2)sc1-c1ccc(OCC(=O)NCC2CCOCC2)cc1` [Example 11, 2-(4-(4-methyl-2-phenylthiazol-5-yl)phenoxy)-N-((tetrahydro-2H-pyran-4-yl)methyl)acetamide] are 30%, 44% and 53%.
Turning to `Cc1nc(-c2ccc(C(F)(F)F)cc2)sc1-c1ccc(OCC(=O)NCC2CCOCC2)cc1` [Example 12, 2-(4-(4-methyl-2-(4-(trifluoromethyl)phenyl)thiazol-5-yl)phenoxy)-N-((tetrahydro-2H-pyran-4-yl)methyl)acetamide], the inhibition at 10 µM worked out at 33% and the inhibition at 100 µM came out at 36%.
With `Cc1nc(-c2ccc(F)cc2)sc1-c1ccc(OCC(=O)NCC2CCOCC2)cc1` [Example 13, 2-(4-(2-(4-fluorophenyl)-4-methylthiazol-5-yl)phenoxy)-N-((tetrahydro-2H-pyran-4-yl)methyl)acetamide], the inhibition at 1 µM is 17%, the inhibition at 10 µM was 30% and the inhibition at 100 µM was found to be 78%.
With `Cc1oc(-c2ccccc2)nc1-c1ccc(OCC(=O)NCC2CCOCC2)cc1` [Example 17, 2-(4-(5-methyl-2-phenyloxazol-4-yl)phenoxy)-N-((tetrahydro-2H-pyran-4-yl)methyl)acetamide], the inhibition at 1 µM stood at 40%, the inhibition at 10 µM worked out at 38% and the inhibition at 100 µM amounted to 63%.
For `Cc1oc(-c2ccc(C(F)(F)F)cc2)nc1-c1ccc(OCC(=O)NCC2CCOCC2)cc1` [Example 18, 2-(4-(5-methyl-2-(4-(trifluoromethyl)phenyl)oxazol-4-yl)phenoxy)-N-((tetrahydro-2H-pyran-4-yl)methyl)acetamide], the inhibition at 10 µM turned out to be 53%.
Turning to `Cc1oc(-c2ccc(F)cc2)nc1-c1ccc(OCC(=O)NCC2CCOCC2)cc1` [Example 19, 2-(4-(2-(4-fluorophenyl)-5-methyloxazol-4-yl)phenoxy)-N-((tetrahydro-2H-pyran-4-yl)methyl)acetamide], the inhibition at 10 µM was 24% and the inhibition at 100 µM came to 50%.
With `Cc1ccc(-c2nc(-c3ccc(OCC(=O)NCC4CCOCC4)cc3)c(C)o2)cc1` [Example 22, 2-(4-(5-methyl-2-(p-tolyl)oxazol-4-yl)phenoxy)-N-((tetrahydro-2H-pyran-4-yl)methyl)acetamide], the inhibition at 1 µM was 27%, the inhibition at 10 µM stood at 30% and the inhibition at 100 µM worked out at 54%.
As for `Cc1oc(-c2cccnc2)nc1-c1ccc(OCC(=O)NCC2CCOCC2)cc1` [Example 24, 2-(4-(5-methyl-2-(pyridin-3-yl)oxazol-4-yl)phenoxy)-N-((tetrahydro-2H-pyran-4-yl)methyl)acetamide], the inhibition at 1 µM came out at 49%, the inhibition at 10 µM was determined as 76% and the inhibition at 100 µM came to 35%.
On the same counts, the results for `O=C(COc1ccc(-c2noc(-c3ccc(C(F)(F)F)cc3)n2)cc1)NCC1CCOCC1` [Example 25, N-((tetrahydro-2H-pyran-4-yl)methyl)-2-(4-(5-(4-(trifluoromethyl)phenyl)-1,2,4-oxadiazol-3-yl)phenoxy)acetamide] are 37%, 50% and 64%.
`O=C(COc1ccc(-c2nnc(-c3ccc(F)cc3)o2)cc1)NCC1CCOCC1` [Example 30, 2-(4-(5-(4-fluorophenyl)-1,3,4-oxadiazol-2-yl)phenoxy)-N-((tetrahydro-2H-pyran-4-yl)methyl)acetamide]: the inhibition at 1 µM is 19%, the inhibition at 10 µM was determined as 20% and the inhibition at 100 µM is 32%.
Take `O=C(COc1ccc(-c2nnc(-c3ccc(C(F)(F)F)cc3)o2)cc1)NCC1CCOCC1` [Example 31, N-((tetrahydro-2H-pyran-4-yl)methyl)-2-(4-(5-(4-(trifluoromethyl)phenyl)-1,3,4-oxadiazol-2-yl)phenoxy)acetamide]: the inhibition at 1 µM stood at 25%, the inhibition at 10 µM came to 34% and the inhibition at 100 µM worked out at 36%.
Take `COc1ccc(-c2nnc(-c3ccc(OCC(=O)NCC4CCOCC4)cc3)o2)cc1` [Example 32, 2-(4-(5-(4-methoxyphenyl)-1,3,4-oxadiazol-2-yl)phenoxy)-N-((tetrahydro-2H-pyran-4-yl)methyl)acetamide]: the inhibition at 1 µM amounted to 13%, the inhibition at 10 µM came to 23% and the inhibition at 100 µM came out at 30%.
On the same counts, the results for `O=C(COc1ccc(C2CN(c3ccc(F)cc3)C(=O)O2)cc1)NCC1CCOCC1` (stereo not shown) [Example 35, 2-(4-(3-(4-fluorophenyl)-2-oxooxazolidin-5-yl)phenoxy)-N-((tetrahydro-2H-pyran-4-yl)methyl)acetamide] are 14%, 54% and 61%.
For the compound `COc1ccc(N2CC(c3ccc(OCC(=O)NCC4CCOCC4)cc3)OC2=O)cc1` (stereo not shown) [Example 36, 2-(4-(3-(4-methoxyphenyl)-2-oxooxazolidin-5-yl)phenoxy)-N-((tetrahydro-2H-pyran-4-yl)methyl)acetamide], the inhibition at 1 µM stood at 47%, the inhibition at 10 µM stood at 24% and the inhibition at 100 µM stood at 61%.
`O=C(COc1ccc(-n2cc(-c3ccccc3)nn2)cc1)NCC1CCOCC1` [Example 37, 2-(4-(4-phenyl-1H-1,2,3-triazol-1-yl)phenoxy)-N-((tetrahydro-2H-pyran-4-yl)methyl)acetamide]: the inhibition at 1 µM was 25%, the inhibition at 10 µM was 58% and the inhibition at 100 µM amounted to 78%.
On the same counts, the results for `COc1cc(-c2ccc(OCC(=O)NCC3CCOCC3)cc2)nn1Cc1ccc(C(F)(F)F)cc1` [Example 38, 2-(4-(5-methoxy-1-(4-(trifluoromethyl)benzyl)-1H-pyrazol-3-yl)phenoxy)-N-((tetrahydro-2H-pyran-4-yl)methyl)acetamide] are 27%, 39% and 59%.
